How the values were obtained:
[1] = Cytotoxicity against human SF295 cells assessed as growth inhibition after 48 hrs by SRB assay; assay type: functional; details: SF-295, 48 h
[2] = Cytotoxicity against human IGROV1 cells assessed as growth inhibition after 48 hrs by SRB assay; assay type: functional; details: IGROV-1, 48 h
[3] = tested on: SK-MEL-28; test: Cytotoxicity against human SK-MEL-28 cells assessed as growth inhibition after 48 hrs by SRB assay; assay type: functional; details: SK-MEL-28, 48 h
[4] = Cytotoxicity against human LOXIMVI cells assessed as growth inhibition after 48 hrs by SRB assay; assay type: functional; details: LOX IMVI
[5] = Cytotoxicity against human SF539 cells assessed as growth inhibition after 48 hrs by SRB assay; assay type: functional; details: SF-539, 48 h
[6] = tested on: MCF7; test: Antiproliferative activity against human MCF7 cells after 72 hrs by MTT assay; details: mcf7
[7] = tested on: NCI-H23; test: Cytotoxicity against human NCI-H23 cells assessed as growth inhibition after 48 hrs by SRB assay; assay type: functional; details: NCI-H23, 48 h
[8] = Cytotoxicity against human SNB75 cells assessed as growth inhibition after 48 hrs by SRB assay; assay type: functional; details: SNB-75, 48 h
[9] = Cytotoxicity against human RXF393 cells assessed as growth inhibition after 48 hrs by SRB assay; assay type: functional; details: RXF 393, 48 h
[10] = tested on: U-251; test: Cytotoxicity against human U251 cells assessed as growth inhibition after 48 hrs by SRB assay; assay type: functional; details: U-251, 48 h
[11] = Cytotoxicity against human TK10 cells assessed as growth inhibition after 48 hrs by SRB assay; assay type: functional; details: TK-10, 48 h
[12] = Cytotoxicity against human OVCAR4 cells assessed as growth inhibition after 48 hrs by SRB assay; assay type: functional; details: OVCAR-4, 48 h
[13] = tested on: NCI-H522; test: Cytotoxicity against human NCI-H522 cells assessed as growth inhibition after 48 hrs by SRB assay; assay type: functional; details: NCI-H522, 48 h
[14] = tested on: K562; test: Cytotoxicity against human K562 cells assessed as growth inhibition after 48 hrs by SRB assay; assay type: functional; details: K562, 48 h
[15] = Cytotoxicity against human SNB19 cells assessed as growth inhibition after 48 hrs by SRB assay; assay type: functional; details: SNB-19, 48 h
[16] = tested on: MDA-MB-435; test: Cytotoxicity against human MDA-MB-435 cells assessed as growth inhibition after 48 hrs by SRB assay; assay type: functional; details: MDA-MB-435, 48 h
[17] = tested on: A498; test: Cytotoxicity against human A498 cells assessed as growth inhibition after 48 hrs by SRB assay; assay type: functional; details: A498, 48 h
[18] = Cytotoxicity against human DU145 cells assessed as growth inhibition after 48 hrs by SRB assay; assay type: functional; details: DU-145, 48 h
[19] = tested on: HT-29; test: Cytotoxicity against human HT-29 cells assessed as growth inhibition after 48 hrs by SRB assay; assay type: functional; details: HT-29, 48 h
[20] = Cytotoxicity against human SF268 cells assessed as growth inhibition after 48 hrs by SRB assay; assay type: functional; details: SF-268, 48 h
[21] = Cytotoxicity against human COLO205 cells assessed as growth inhibition after 48 hrs by SRB assay; assay type: functional; details: COLO 205, 48 h
[22] = tested on: CCRF-CEM; test: Cytotoxicity against human CCRF-CEM cells assessed as growth inhibition after 48 hrs by SRB assay; assay type: functional
[23] = Cytotoxicity against human Hs 578T cells assessed as growth inhibition after 48 hrs by SRB assay; assay type: functional
[24] = tested on: MDA-MB-231; test: Cytotoxicity against human MDA-MB-231 cells assessed as growth inhibition after 48 hrs by SRB assay; assay type: functional; details: MDA-MB-231, 48 h
[25] = Cytotoxicity against human SW620 cells assessed as growth inhibition after 48 hrs by SRB assay; assay type: functional; details: SW-620, 48 h
[26] = Cytotoxicity against human NCI-ADR-RES cells assessed as growth inhibition after 48 hrs by SRB assay; assay type: functional
[27] = tested on: MCF7; test: Cytotoxicity against human MCF7 cells assessed as growth inhibition after 48 hrs by SRB assay; assay type: functional; details: MCF7, 48 h
[28] = tested on: SR; test: Cytotoxicity against human SR cells assessed as growth inhibition after 48 hrs by SRB assay; assay type: functional
[29] = Cytotoxicity against human OVCAR8 cells assessed as growth inhibition after 48 hrs by SRB assay; assay type: functional; details: OVCAR-8, 48 h
[30] = Cytotoxicity against human HOP92 cells assessed as growth inhibition after 48 hrs by SRB assay; assay type: functional; details: HOP-92, 48 h
[31] = Cytotoxicity against human OVCAR3 cells assessed as growth inhibition after 48 hrs by SRB assay; assay type: functional; details: OVCAR-3, 48 h
[32] = tested on: MDA-MB-468; test: Cytotoxicity against human MDA-MB-468 cells assessed as growth inhibition after 48 hrs by SRB assay; assay type: functional; details: MDA-MB-468, 48 h
[33] = tested on: NCI-H226; test: Cytotoxicity against human NCI-H226 cells assessed as growth inhibition after 48 hrs by SRB assay; assay type: functional; details: NCI-H226, 48 h
[34] = read-out: LC50 (the source's name)

CCCCCCCCCC(=O)Oc1ccc(/C(=C(/C)c2ccccc2)c2ccc(OCCN3CCCC3)cc2)cc1
GI50 [1]: 7.93 µM
LC50 (concentration killing 50% of cells) [1]: 28.6 µM
TGI [1]: 15.1 µM
GI50 [2]: 8.87 µM
TGI [2]: 19.5 µM
CC50 [2, 34]: 43.7 µM
LC50 (concentration killing 50% of starting cells) [3]: 28.6 µM
TGI [3]: 15.3 µM
GI50 [4]: 8.02 µM
LC50 (concentration killing 50% of cells) [4]: 27.2 µM
TGI [4]: 14.8 µM
GI50 [5]: 8.7 µM
LC50 [5]: 32.9 µM
TGI [5]: 16.9 µM
IC50 [6]: < 1 µM
GI50 [7]: 7.74 µM
TGI [7]: 16.1 µM
CC50 [7, 34]: 33.4 µM
GI50 [8]: 6.55 µM
LC50 [8]: 27.9 µM
TGI [8]: 13.5 µM
GI50 [9]: 6.95 µM
TGI [9]: 14.1 µM
CC50 [9, 34]: 28.8 µM
GI50 [10]: 8.01 µM
LC50 (50% lethal concentration) [10]: 29.8 µM
TGI [10]: 15.4 µM
GI50 [11]: 8.86 µM
LC50 [11]: 31.3 µM
TGI [11]: 16.7 µM
GI50 [12]: 7.39 µM
LC50 [12]: 29.9 µM
TGI [12]: 14.9 µM
GI50 [13]: 9.36 µM
TGI [13]: 18.4 µM
CC50 [13, 34]: 36.3 µM
LC50 [14]: 36.2 µM
TGI [14]: 16.2 µM
GI50 [15]: 9.04 µM
TGI [15]: 17.7 µM
CC50 [15, 34]: 34.7 µM
GI50 [16]: 7.47 µM
TGI [16]: 14.1 µM
CC50 [16, 34]: 26.5 µM
LC50 [17]: 29.4 µM
TGI [17]: 13.5 µM
GI50 [18]: 8 µM
LC50 [18]: 27.5 µM
TGI [18]: 14.8 µM
TGI [19]: 12.3 µM
CC50 [19, 34]: 27 µM
GI50 [20]: 8.16 µM
LC50 [20]: 36.3 µM
TGI [20]: 17.2 µM
TGI [21]: 14.7 µM
CC50 [21, 34]: 29.1 µM
GI50 [22]: 9.51 µM
TGI [22]: 22.3 µM
CC50 [22, 34]: 50 µM
GI50 [23]: 9.55 µM
TGI [23]: 32.2 µM
CC50 [23, 34]: > 50 µM
GI50 [24]: 1.02 µM
LC50 [24]: 39.9 µM
TGI [24]: 20.2 µM
GI50 [25]: 8.57 µM
LC50 [25]: 28.5 µM
TGI [25]: 15.6 µM
GI50 [26]: 8.03 µM
TGI [26]: 16.8 µM
CC50 [26, 34]: 35.4 µM
GI50 [27]: < 5 µM
TGI [27]: 10.3 µM
CC50 [27, 34]: 28 µM
GI50 [28]: 9.08 µM
TGI [28]: 19 µM
CC50 [28, 34]: 39.7 µM
GI50 [29]: 9.78 µM
TGI [29]: 20.8 µM
CC50 [29, 34]: 44.2 µM
GI50 [30]: 7.01 µM
TGI [30]: 15.4 µM
CC50 [30, 34]: 33.8 µM
GI50 [31]: 8.18 µM
LC50 [31]: 31.6 µM
TGI [31]: 16.1 µM
GI50 [32]: 7.26 µM
TGI [32]: 14.7 µM
CC50 [32, 34]: 29.7 µM
GI50 [33]: 9.42 µM
LC50 (50% lethal concentration) [33]: 36.4 µM
TGI [33]: 18.5 µM

— ChEMBL document CHEMBL3774317, “Design and synthesis of novel tamoxifen analogues that avoid CYP2D6 metabolism” (Eur J Med Chem, 2016)
